In the assay the test system is diabetic rats. The experiment in a line: In vivo study after administration in diabetic rats (blood glucose level-time profiles). The procedure: The effect of insulin-loaded nanoparticles on the blood glucose levels is shown by comparing with that of the S.C. injection of insulin. […] SC injection of the insulin solution produces a sharp decrease in blood glucose level (90% in 2 h), which gradually returns to the basal level at 10 h, whereas the hypoglycemia effect is less significant after oral administration of the enteric-coated capsules which produces a slower but prolonged reduction in blood glucose level. The blood glucose level of the diabetic rats increases slightly during the first 4 hours of the experiment, possibly due to physical stress during handling and blood sampling. The hypoglycemic effect and the pharmacological availability (PA) of the enteric-coated capsule, determined by the dose-corrected AAC0-24h over 24 h relative to SC free-form insulin, as noted in Table 4, are 32.9% and 9.2%, respectively.

The record followed here is US9101547B2, “Enteric-coated capsule containing cationic nanoparticles for oral insulin delivery” (NANO AND ADVANCED MATERIALS INSTITUTE LIMITED, priority 2011, dated 2015).

As for insulin [Insulin free-form (SC)], the “hypoglycemic effect (FIG. 4)” value is listed as “significant hypoglycemic effect”. The “time at which blood glucose returns to the basal level” value (SC injection) came out at 10 h. Also, the “decrease in blood glucose level” value (SC injection, in 2 h) turned out to be 90%. Also, the “PA (pharmacological availability)” value (dose-corrected AAC0-24h relative to SC free-form insulin) is given as 100%. In addition, the “Cmin = minimum relative basal glucose concentration in the blood” value (mean ± SD, n = 3 per group) amounted to 11.72 ± 1.1%. Besides, under “n = 3 per group”, the AAC0-24 h was 1008 % h and the “Tmax = time at minimum relative basal glucose concentration in the blood” value amounted to 2 h. In addition, the “Hypoglycemic Effect” value (over 24 h, n = 3 per group) is recorded as 35.2%.
